Test results published in patent US12559506B2, “Indazole based compounds and associated methods of use” (Arvinas Operations, Inc., priority 2021, dated 2026).

Target: T1, LRRK2 (endogenous, HiBit tagged) (Homo sapiens, UniProt Q5S007)
T1 construct: endogenous in cells; host or cells: HEK293 cells with HiBit knock-in at the endogenous LRRK2 locus, stably expressing firefly luciferase
Experiment: Endogenous LRRK2 degradation assay, endogenous gene C-terminally HiBit-tagged in HEK293 cells (Nano-Glo Dual Luciferase)
Type: cell-based
Details: endogenous HiBit-tagged LRRK2 in HEK293 cells, 24 hours treatment; for DC50: read-out: Endogenous WT DC50; for Dmax: read-out: Endogenous WT Dmax
Outline: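 LRRK2-HiBit quantified via Nano-Glo Dual Luciferase in HEK293 knock-in cells co-expressing firefly luciferase, after 24 h exposure to compound (1 μM final top, 1:3, 11 points). Values normalised to DMSO median per plate and curve-fitted; Alamar Blue viability run alongside.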

T1 sequence (Q5S007 whole entry): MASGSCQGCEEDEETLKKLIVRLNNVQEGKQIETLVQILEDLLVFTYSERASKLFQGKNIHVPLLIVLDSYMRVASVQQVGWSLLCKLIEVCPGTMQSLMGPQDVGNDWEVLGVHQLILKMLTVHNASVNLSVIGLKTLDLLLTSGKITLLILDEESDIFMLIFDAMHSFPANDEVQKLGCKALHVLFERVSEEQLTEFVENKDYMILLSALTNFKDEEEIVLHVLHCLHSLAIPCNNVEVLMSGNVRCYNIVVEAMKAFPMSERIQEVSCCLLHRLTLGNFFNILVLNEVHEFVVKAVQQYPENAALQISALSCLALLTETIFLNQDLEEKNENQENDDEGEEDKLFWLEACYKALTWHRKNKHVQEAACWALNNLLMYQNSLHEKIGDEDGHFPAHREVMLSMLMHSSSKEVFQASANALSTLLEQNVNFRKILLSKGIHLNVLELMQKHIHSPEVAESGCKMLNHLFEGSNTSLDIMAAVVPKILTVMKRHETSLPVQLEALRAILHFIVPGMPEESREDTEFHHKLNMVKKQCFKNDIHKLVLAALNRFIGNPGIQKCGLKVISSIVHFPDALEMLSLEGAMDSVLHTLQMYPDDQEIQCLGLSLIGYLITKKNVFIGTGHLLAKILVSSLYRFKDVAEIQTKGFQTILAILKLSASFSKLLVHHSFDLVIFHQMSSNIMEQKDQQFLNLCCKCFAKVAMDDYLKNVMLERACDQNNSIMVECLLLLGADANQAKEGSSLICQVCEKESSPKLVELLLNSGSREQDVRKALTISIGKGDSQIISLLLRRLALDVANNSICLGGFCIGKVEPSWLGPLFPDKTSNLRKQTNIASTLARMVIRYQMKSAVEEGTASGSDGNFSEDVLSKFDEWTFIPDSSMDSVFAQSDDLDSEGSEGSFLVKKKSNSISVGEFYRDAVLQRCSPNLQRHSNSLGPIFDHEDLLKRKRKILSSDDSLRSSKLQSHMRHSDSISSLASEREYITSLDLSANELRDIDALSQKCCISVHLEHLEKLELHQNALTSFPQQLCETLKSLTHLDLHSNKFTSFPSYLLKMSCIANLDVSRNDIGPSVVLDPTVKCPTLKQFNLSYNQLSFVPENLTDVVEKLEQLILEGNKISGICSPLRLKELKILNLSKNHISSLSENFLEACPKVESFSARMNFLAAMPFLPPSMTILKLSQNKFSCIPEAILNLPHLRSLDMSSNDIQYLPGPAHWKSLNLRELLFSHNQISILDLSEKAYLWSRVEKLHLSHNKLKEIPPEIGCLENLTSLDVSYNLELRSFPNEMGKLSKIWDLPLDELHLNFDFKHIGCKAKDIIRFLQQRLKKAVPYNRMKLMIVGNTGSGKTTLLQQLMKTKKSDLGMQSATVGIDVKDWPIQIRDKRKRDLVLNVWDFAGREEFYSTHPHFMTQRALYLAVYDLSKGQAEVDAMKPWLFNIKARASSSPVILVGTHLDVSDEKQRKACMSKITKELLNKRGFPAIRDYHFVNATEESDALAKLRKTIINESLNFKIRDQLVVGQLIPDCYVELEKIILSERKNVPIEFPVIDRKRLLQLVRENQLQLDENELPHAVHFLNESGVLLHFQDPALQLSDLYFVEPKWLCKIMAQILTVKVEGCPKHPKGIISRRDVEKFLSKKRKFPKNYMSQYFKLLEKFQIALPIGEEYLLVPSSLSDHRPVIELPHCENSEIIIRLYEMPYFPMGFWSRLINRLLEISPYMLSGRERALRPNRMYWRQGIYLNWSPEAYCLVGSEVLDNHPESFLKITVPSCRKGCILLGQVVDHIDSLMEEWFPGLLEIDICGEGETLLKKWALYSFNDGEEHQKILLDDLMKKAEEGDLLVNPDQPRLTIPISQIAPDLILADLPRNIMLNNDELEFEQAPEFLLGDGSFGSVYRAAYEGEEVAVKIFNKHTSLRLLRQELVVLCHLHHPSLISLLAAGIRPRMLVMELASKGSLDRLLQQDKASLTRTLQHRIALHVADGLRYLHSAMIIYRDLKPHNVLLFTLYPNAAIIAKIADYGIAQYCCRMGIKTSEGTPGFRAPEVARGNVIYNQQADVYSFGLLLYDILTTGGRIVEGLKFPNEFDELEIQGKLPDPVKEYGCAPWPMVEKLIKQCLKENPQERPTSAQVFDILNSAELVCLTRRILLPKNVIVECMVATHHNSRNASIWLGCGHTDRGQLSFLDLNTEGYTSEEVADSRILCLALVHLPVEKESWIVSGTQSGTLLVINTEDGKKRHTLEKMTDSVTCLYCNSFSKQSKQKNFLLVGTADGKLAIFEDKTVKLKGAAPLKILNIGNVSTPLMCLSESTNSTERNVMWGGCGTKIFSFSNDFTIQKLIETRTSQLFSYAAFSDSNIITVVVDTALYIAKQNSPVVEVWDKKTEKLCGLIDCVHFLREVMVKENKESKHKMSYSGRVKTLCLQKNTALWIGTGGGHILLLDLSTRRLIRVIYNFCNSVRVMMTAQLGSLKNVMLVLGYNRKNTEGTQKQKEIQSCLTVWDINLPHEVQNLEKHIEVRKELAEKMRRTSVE

Row | Structure (SMILES) | DC50 | Dmax
1 | CC1(Oc2ccc3[nH]nc(-c4cc(N5CCC(COC6CCC7(CC6)CN(c6ccc8c(c6F)CN(C6CCC(=O)NC6=O)C8=O)C7)CC5)ncn4)c3c2)CC1 (stereo not drawn) [Compound 372, 3-(4-fluoro-5-{7-[(1-{6-[5-(1-methylcyclopropoxy)-1H-indazol-3-yl]pyrimidin-4-yl}piperidin-4-yl)methoxy]-2-azaspiro[3.5]nonan-2-yl}-1-oxo-2,3-dihydro-1H-isoindol-2-yl)piperidine-2,6-dione] | < 10 nM | 50 to 70%
2 | CC1(Oc2ccc3[nH]nc(-c4cc(N5CCC(CN6CCC(F)(CN7CCN(c8c(F)cc9c(c8F)CN(C8CCC(=O)NC8=O)C9=O)CC7)CC6)CC5)ncn4)c3c2)CC1 (stereo not drawn) [Compound 373, 3-{4,6-difluoro-5-[4-({4-fluoro-1-[(1-{6-[5-(1-methylcyclopropoxy)-1H-indazol-3-yl]pyrimidin-4-yl}piperidin-4-yl)methyl]piperidin-4-yl}methyl)piperazin-1-yl]-1-oxo-2,3-dihydro-1H-isoindol-2-yl}piperidine-2,6-dione] | < 10 nM | ≥ 70%
3 | CC1(Oc2ccc3[nH]nc(-c4cc(N5CCC(OC6CCC7(CC6)CN(c6ccc8c(c6F)CN(C6CCC(=O)NC6=O)C8=O)C7)CC5)ncn4)c3c2)CC1 (stereo not drawn) [Compound 374, 3-(4-fluoro-5-{7-[(1-{6-[5-(1-methylcyclopropoxy)-1H-indazol-3-yl]pyrimidin-4-yl}piperidin-4-yl)oxy]-2-azaspiro[3.5]nonan-2-yl}-1-oxo-2,3-dihydro-1H-isoindol-2-yl)piperidine-2,6-dione] | < 10 nM | 50 to 70%
4 | CC1(Oc2ccc3[nH]nc(-c4ccnc(N5CCC(O[C@H]6CC[C@H](CN7CCN(c8ccc9c(c8F)CN(C8CCC(=O)NC8=O)C9=O)CC7)CC6)CC5)c4)c3n2)CC1 (stereo partly drawn) [Compound 375, 3-(4-fluoro-5-(4-(((1r,4r)-4-((1-(4-(5-(1-methylcyclopropoxy)-1H-pyrazolo[4,3-b]pyridin-3-yl)pyridin-2-yl)piperidin-4-yl)oxy)cyclohexyl)methyl)piperazin-1-yl)-1-oxoisoindolin-2-yl)piperidine-2,6-dione] | < 10 nM | 50 to 70%
5 | CC1(Oc2ccc3[nH]nc(-c4cc(N5CCC(CCN6CCC7(CN(c8ccc9c(c8F)CN(C8CCC(=O)NC8=O)C9=O)C7)C(F)(F)C6)CC5)ncn4)c3c2)CC1 (stereo not drawn) [Compound 376, 3-(5-{5,5-difluoro-7-[2-(1-{6-[5-(1-methylcyclopropoxy)-1H-indazol-3-yl]pyrimidin-4-yl}piperidin-4-yl)ethyl]-2,7-diazaspiro[3.5]nonan-2-yl}-4-fluoro-1-oxo-2,3-dihydro-1H-isoindol-2-yl)piperidine-2,6-dione] | < 10 nM | 50 to 70%
6 | CC1(Oc2ccc3[nH]nc(-c4cnnc(N5CCC(O[C@H]6CC[C@H](CN7CCN(c8ccc9c(c8F)CN(C8CCC(=O)NC8=O)C9=O)CC7)CC6)CC5)c4)c3c2)CC1 (stereo partly drawn) [Compound 377, 3-[4-fluoro-1-oxo-5-(4-{[(1r,4r)-4-[(1-{5-[5-(1-methylcyclopropoxy)-1H-indazol-3-yl]pyridazin-3-yl}piperidin-4-yl)oxy]cyclohexyl]methyl}piperazin-1-yl)-2,3-dihydro-1H-isoindol-2-yl]piperidine-2,6-dione] | < 10 nM | 50 to 70%
7 | CC1(Oc2ccc3[nH]nc(-c4cc(N5CCC(O[C@H]6CC[C@H](CN7CCN(c8ccc9c(c8F)CN(C8CCC(=O)NC8=O)C9=O)C(C)(C)C7)CC6)CC5)ncn4)c3c2)CC1 (stereo partly drawn) [Compound 378, 3-[5-(2,2-dimethyl-4-{[(1r,4r)-4-[(1-{6-[5-(1-methylcyclopropoxy)-1H-indazol-3-yl]pyrimidin-4-yl}piperidin-4-yl)oxy]cyclohexyl]methyl}piperazin-1-yl)-4-fluoro-1-oxo-2,3-dihydro-1H-isoindol-2-yl]piperidine-2,6-dione] | < 10 nM | 50 to 70%
8 | Cc1cc(-c2n[nH]c3ccc(OC4(C)CC4)cc23)cc(N2CCN(C[C@H]3CC[C@H](OC4CCN(c5ccc6c(c5F)CN(C5CCC(=O)NC5=O)C6=O)CC4)CC3)CC2)n1 (stereo partly drawn) [Compound 379, 3-[4-fluoro-1-oxo-5-(4-{[(1r,4r)-4-[(4-{6-methyl-4-[5-(1-methylcyclopropoxy)-1H-indazol-3-yl]pyridin-2-yl}piperazin-1-yl)methyl]cyclohexyl]oxy}piperidin-1-yl)-2,3-dihydro-1H-isoindol-2-yl]piperidine-2,6-dione] | < 10 nM | 50 to 70%
9 | COc1c(N2CCC(O[C@H]3CC[C@H](OC4CCN(c5cc(-c6n[nH]c7cnc(OC8(C)CC8)cc67)ncn5)CC4)CC3)CC2)ccc2c1CN(C1CCC(=O)NC1=O)C2=O (stereo partly drawn) [Compound 380, 3-[4-methoxy-1-oxo-5-(4-{[(1r,4r)-4-[(1-{6-[5-(1-methylcyclopropoxy)-1H-pyrazolo[3,4-c]pyridin-3-yl]pyrimidin-4-yl}piperidin-4-yl)oxy]cyclohexyl]oxy}piperidin-1-yl)-2,3-dihydro-1H-isoindol-2-yl]piperidine-2,6-dione] | < 10 nM | 50 to 70%
10 | CC1(Oc2ccc3[nH]nc(-c4cc(N5CCN(C[C@H]6CC[C@H](OC7CCN(c8ccc9c(c8F)CN(C8CCC(=O)NC8=O)C9=O)CC7)CC6)C(C)(C)C5)ncn4)c3c2)CC1 (stereo partly drawn) [Compound 381, 3-[4-fluoro-1-oxo-5-(4-{[(1r,4r)-4-[(2,2-dimethyl-4-{6-[5-(1-methylcyclopropoxy)-1H-indazol-3-yl]pyrimidin-4-yl}piperazin-1-yl)methyl]cyclohexyl]oxy}piperidin-1-yl)-2,3-dihydro-1H-isoindol-2-yl]piperidine-2,6-dione] | 10 to 50 nM | < 50%
11 | COc1c(N2CCC(O[C@H]3CC[C@H](CN4CCN(c5cc(-c6n[nH]c7ccc(OC8(C)CC8)cc67)ncn5)CC4(C)C)CC3)CC2)ccc2c1CN(C1CCC(=O)NC1=O)C2=O (stereo partly drawn) [Compound 382, 3-[4-methoxy-1-oxo-5-(4-{[(1r,4r)-4-[(2,2-dimethyl-4-{6-[5-(1-methylcyclopropoxy)-1H-indazol-3-yl]pyrimidin-4-yl}piperazin-1-yl)methyl]cyclohexyl]oxy}piperidin-1-yl)-2,3-dihydro-1H-isoindol-2-yl]piperidine-2,6-dione] | 10 to 50 nM | 50 to 70%
12 | CC1(Oc2ccc3[nH]nc(-c4cc(N5CCN(C[C@H]6CC[C@H](OC7CCN(c8ccc9c(c8F)CN(C8CCC(=O)NC8=O)C9=O)CC7)CC6)CC5(C)C)ncn4)c3c2)CC1 (stereo partly drawn) [Compound 383, 3-(5-(4-(((1r,4r)-4-((3,3-dimethyl-4-(6-(5-(1-methylcyclopropoxy)-1H-indazol-3-yl)pyrimidin-4-yl)piperazin-1-yl)methyl)cyclohexyl)oxy)piperidin-1-yl)-4-fluoro-1-oxoisoindolin-2-yl)piperidine-2,6-dione] | 50 to 100 nM | < 50%
